The source of these data is patent publication US6642237B1, “Gamma-hydroxy-2-(fluoroalkylaminocarbonyl)-1-piperazinepentanamides and uses thereof” (Merck & Co., Inc., priority 1999, dated 2003).

SMILES strings stand for the structures.

The subject of test [1] is HIV-1 viral constructs Q60, K-60, and V-18 in MT-4 T-lymphoid cells. It is filed as cell-based. Conditions: concentration reducing spread of infection by at least 95%; MT-4 cells, 4 days postinfection.
Method: Inhibition of the spread of HIV in cell culture was measured according to Nunberg et al., J. Virol. […] In this assay, MT-4 T-lymphoid cells were infected with HIV-1 (wild-type, unless otherwise indicated) by using a predetermined inoculum, and cultures were incubated for 24 h. At this time, ≦1% of the cells were positive by indirect immunofluorescence. Cells were then extensively washed and distributed into 96-well culture dishes. Serial twofold dilutions of inhibitor were added to the wells, and cultures were continued for 3 additional days. At 4 days postinfection, 100% of the cells in control cultures were infected. HIV-1 p24 accumulation was directly correlated with virus spread. The cell culture inhibitory concentration was defined as the inhibitor concentration in nanomoles/liter which reduced the spread of infection by at least 95%, or CIC95.
In the next test the test system is HIV. As to conditions: HIV-infected patients; in combination with nucleoside reverse transcriptase inhibitors; cited from earlier work.

`CC(C)(C)NC(=O)[C@@H]1CN(Cc2cccnc2)CCN1C[C@@H](O)C[C@@H](Cc1ccccc1)C(=O)N[C@H]1c2ccccc2C[C@H]1O` [indinavir]: the “CIC95 against the viral constructs Q60, K-60, and V-18” value in test [1] is reported as “greater than 1000 nM”. Moreover, the “reducing HIV viral loads and increasing CD4 cell counts” value in the test with HIV is recorded as “highly effective”.
